# Measurements: patent US11851428B2, “Activator of TREK (TWIK RElated K+channels) channels” (ONO PHARMACEUTICAL CO., LTD., priority 2016, dated 2023)
# Target: T1, human TREK-1 (Homo sapiens, UniProt O95069)
# T1 construct: expressed in transfected cells
# T1 sequence (O95069 1-426): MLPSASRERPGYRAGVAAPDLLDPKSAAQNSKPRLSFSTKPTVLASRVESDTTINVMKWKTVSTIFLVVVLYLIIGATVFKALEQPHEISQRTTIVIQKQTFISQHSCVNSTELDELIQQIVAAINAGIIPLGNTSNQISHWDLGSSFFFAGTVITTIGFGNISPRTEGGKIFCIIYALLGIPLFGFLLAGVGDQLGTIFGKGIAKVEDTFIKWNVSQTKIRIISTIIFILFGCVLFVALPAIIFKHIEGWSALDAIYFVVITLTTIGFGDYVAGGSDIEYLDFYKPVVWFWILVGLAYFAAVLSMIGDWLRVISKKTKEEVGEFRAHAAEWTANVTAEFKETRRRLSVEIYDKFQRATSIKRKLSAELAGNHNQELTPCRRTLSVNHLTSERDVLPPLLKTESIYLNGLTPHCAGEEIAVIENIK
# Experiment: thallium flux assay (TREK1 activation normalized to BL-1249)
# Format: cell-based
# Details: CHO-K1, read-out: TREK1 activation RBL-1249 (%)
# Method: The term “thallium flux assay” herein refers to a fluorescence-based assay used to monitor the activity of TREK channels. Thallium is a congener of potassium that readily fluxes through the pore of TREK channels. Thallium flux is measured using a commercially available, thallium-sensitive fluorescent dye called Thallos. The detail method is described below.
# Method 1 (Thallium Flux Assay);
# CHO-K1 cells stably expressing human TREK-1 or HEK293 cells stably expressing human TREK-2 are plated in 384-well plates, cultured overnight, loaded with Thallos dye the following day, treated with test compounds for 10 min, and then treated with thallium stimulus buffer to initiate thallium flux. The change in fluorescence at 25 seconds after thallium addition is normalized to baseline fluorescence (fluorescent intensity at 25 sec after Tl^+ addition)/(average of fluorescent intensity at pre-read).
row,SMILES,activation at 10 µM [%]
1,"O=C(NCc1ccc(OC(F)(F)F)cc1Cl)c1ccc2ncnn2c1 [Example 9-2, N-[[2-chloro-4-(trifluoromethoxy)phenyl]methyl]-[1,2,4]triazolo[1,5-a]pyridine-6-carboxamide]",106

# Same assay, conditions: concentration of Example compound 10 μM; normalized to 10 μM BL-1249; CHO-K1 cells stably expressing human TREK-1
row,SMILES,TREK1 activation RBL-1249 (%)
1,"O=C(NCc1ccc(OC(F)(F)F)cc1)c1ccc(-c2nccs2)cc1 [Example 2-9, 4-(1,3-thiazol-2-yl)-N-+4-(trifluoromethoxy)benzyl+benzamide]",25
2,COc1cc(OC(F)(F)F)ccc1CNC(=O)c1ccc(-c2ccccn2)nc1 [Example 2-29],51
3,"O=C(NCc1ccc(OC(F)(F)F)cc1Cl)c1cnc2ccnn2c1 [Example 9-8, N-[[2-chloro-4-(trifluoromethoxy)phenyl]methyl]pyrazo1o[1,5-a]pyrimidine-6-carboxamide]",106
4,Cc1nnc2cc(C(=O)NCc3ccc(OC(F)(F)F)cc3Cl)ccn12 [Example 9-11],126

# Same assay, conditions: concentration of Example compound 10 μM; normalized to 10 μM BL-1249; CHO-K1 cells stably expressing human TREK-1; read-out: TREK1 activation RBL-1249 (%)
row,SMILES,activation at 10 µM [%]
1,"O=C(NCc1ccc(OC(F)(F)F)cc1)c1ccc(-c2cnco2)cc1 [Example 2-6, 4-(1,3-oxazol-5-yl)-N-[4-(trifluoromethoxy)benzyl]benzamide]",32
2,"O=C(NCc1ccc(OC(F)(F)F)cc1)c1ccc(-c2cnc[nH]2)cc1 [Example 2-10, 4-(1H-imidazol-5-yl)-N-[4-(trifluoromethoxy)benzyl]benzamide]",46
3,"O=C(NCc1ccc(OC(F)(F)F)cc1)c1ccc(-c2nnco2)cc1 [Example 2-12, 4-(1,3,4-oxadiazol-2-yl)-N-[4-(trifluoromethoxy)benzyl]benzamide]",29
4,"O=C(NCc1ccc(OC(F)(F)F)cc1F)c1ccc(-n2cncn2)cc1 [Example 2-16, N-[2-fluoro-4-(trifluoromethoxy)benzyl]-4-(1H-1,2,4-triazol-1-yl)benzamide]",46
5,"O=C(NCc1ccc(SC(F)(F)F)cc1)c1ccc(-n2cncn2)cc1 [Example 2-18, 4-(1H-1,2,4-triazol-1-yl)-N-{4-[(trifluoromethyl)thio]benzyl}benzamide]",39
6,"O=C(NCc1ccc(OC(F)(F)F)c(F)c1)c1ccc(-c2nc[nH]n2)cc1 [Example 2-22, N-[3-fluoro-4-(trifluoromethoxy)benzyl]-4-(1H-1,2,4-triazol-3-yl)benzamide]",66
7,"O=C(NCc1ccc(OC(F)(F)F)cc1F)c1ccc(-c2ncn[nH]2)cc1 [Example 2-24, N-[2-fluoro-4-(trifluoromethoxy)benzyl]-4-(1H-1,2,4-triazol-5-yl)benzamide]",69
8,"COc1cc(OC(F)(F)F)ccc1CNC(=O)c1ccc(-c2nc[nH]n2)cc1 [Example 2-25, N-[2-methoxy-4-(trifluoromethoxy)benzyl]-4-(1H-1,2,4-triazol-3-yl)benzamide]",48
9,"O=C(NCc1ccc(C(F)(F)F)cc1Cl)c1ccc(-c2nc[nH]n2)cc1 [Example 2-26, N-[2-chloro-4-(trifluoromethyl)benzyl]-4-(1H-1,2,4-triazol-3-yl)benzamide]",76
10,"O=C(NCc1ccc(C(F)(F)F)cc1Cl)c1ccc(-c2cccnc2)cc1 [Example 2-28, N-[2-chloro-4-(trifluoromethyl)benzyl]-4-(3-pyridinyl)benzamide]",22
11,"COc1cc(OC(F)(F)F)ccc1CNC(=O)c1ccc(-n2cncn2)nc1 [Example 2-30, N-[2-methoxy-4-(trifluoromethoxy)benzyl]-6-(1H-1,2,4-triazol-1-yl)nicotinamide]",42
12,"Cc1cc(OC(F)(F)F)ccc1CNC(=O)c1ccc(-c2ncn[nH]2)cc1 [Example 2-34, N-[2-methyl-4-(trifluoromethoxy)benzyl]-4-(1H-1,2,4-triazol-5-yl)benzamide]",80
13,"O=C(NCc1ccc(OC(F)(F)F)cc1F)c1ccc(-c2ncc[nH]2)cc1 [Example 2-36, N-[2-fluoro-4-(trifluoromethoxy)benzyl]-4-(1H-imidazol-2-yl)benzamide]",73
14,"Cc1cc(OC(F)(F)F)ccc1CNC(=O)c1ccc(-n2cccn2)cc1 [Example 2-38, N-[2-methyl-4-(trifluoromethoxy)benzyl]-4-(1H-pyrazol-1-yl)benzamide]",55
15,"COc1cc(OC(F)(F)F)ccc1CNC(=O)c1ccc(-n2cccn2)cc1 [Example 2-41, N-[2-methoxy-4-(trifluoromethoxy)benzyl]-4-(1H-pyrazol-1-yl)benzamide]",63
16,"O=C(NCc1ccc(OC(F)(F)F)cc1)c1ccc(-c2ncccn2)cc1 [Example 2-47, 4-(2-pyrimidinyl)-N-[4-(trifluoromethoxy)benzyl]benzamide]",44
17,"O=C(NCc1ccc(Br)cc1Cl)c1ccc(-c2ncn[nH]2)cc1 [Example 2-49, N-(4-bromo-2-chlorobenzyl)-4-(1H-1,2,4-triazol-5-yl)benzamide]",84
18,"Cc1nnc2cc(C(=O)NCc3ccc(OC(F)(F)F)c(F)c3)ccn12 [Example 3-3, N-[3-fluoro-4-(trifluoromethoxy)benzyl]-3-methyl[1,2,4]triazolo[4,3-a]pyridine-7-carboxamide]",67
19,"Cc1nc2ccc(C(=O)NCc3ccc(OC(F)(F)F)cc3C)cn2n1 [Example 3-4, 2-methyl-N-[2-methyl-4-(trifluoromethoxy)benzyl][1,2,4]triazolo[1,5-a]pyridine-6-carboxamide]",89
20,"Cc1cc(OC(F)(F)F)ccc1CNC(=O)c1ccn2c(C)nnc2c1 [Example 3-5, 3-methyl-N-[2-methyl-4-(trifluoromethoxy)benzyl][1,2,4]triazolo[4,3-a]pyridine-7-carboxamide]",89
21,"O=C(NCc1ccc(OC(F)(F)F)cc1Cl)c1ccn2cnnc2c1 [Example 9, N-[[2-Chloro-4-(trifluoromethoxy)phenyl]methyl]-[1,2,4]triazolo[4,3-a]pyridine-7-carboxamide]",99
22,"Cn1nnc2cc(C(=O)NCc3ccc(OC(F)(F)F)cc3Cl)ccc21 [Example 9-4, N-[[2-chloro-4-(trifluoromethoxy)phenyl]methyl]-1-methylbenzotriazole-5-carboxamide]",87
23,"O=C(NCc1ccc(OC(F)(F)F)cc1Cl)c1ccc2[nH]nnc2c1 [Example 9-7, N-[[2-chloro-4-(trifluoromethoxy)phenyl]methyl]-1H-benzotriazole-5-carboxamide]",125

# Same assay, conditions: concentration of Example compound 30 μM; normalized to 10 μM BL-1249; CHO-K1 cells stably expressing human TREK-1; read-out: TREK1 activation RBL-1249 (%)
row,SMILES,activation at 30 µM [%]
1,"O=C(NCc1ccc(OC(F)(F)F)cc1)c1nc(-c2ccccn2)cs1 [Example 2-32, 4-(2-pyridinyl)-N-[4-(trifluoromethoxy)benzyl]-1,3-thiazole-2-carboxamide]",38
2,"O=C(NCc1ccc(C(F)(F)F)cn1)c1ccc(-n2cccn2)cc1 [Example 2-37, 4-(1H-pyrazol-1-yl)-N-{[5-(trifluoromethyl)-2-pyridinyl]methyl}benzamide]",24
3,"Cc1cc(C(=O)NCc2ccc(Br)cc2Cl)cn2ncnc12 [Example 3-2, N-(4-bromo-2-chlorobenzyl)-8-methyl[1,2,4]triazolo[1,5-a]pyridine-6-carboxamide]",41
4,"CS(=O)(=O)N1CCOc2cc(C(=O)NCc3ccc(Br)cc3Cl)ccc21 [Example 3-10, N-(4-bromo-2-chlorobenzyl)-4-(methylsulfonyl)-3,4-dihydro-2H-1,4-benzoxazine-7-carboxamide]",34
5,"COc1cc(OC(F)(F)F)ccc1CNC(=O)c1ccc(-c2noc(=O)[nH]2)cc1 [Example 4, N-[2-Methoxy-4-(trifluoromethoxy)benzyl]-4-(5-oxo-4,5-dihydro-1,2,4-oxadiazol-3-yl)benzamide]",77
6,"COc1cc(OC(F)(F)F)ccc1CNC(=O)c1ccc(-c2nnn[nH]2)cc1 [Example 5, N-[2-Methoxy-4-(trifluoromethoxy)benzyl]-4-(1H-tetrazol-5-yl)benzamide]",79
7,"O=C(Cc1ccc(OC(F)(F)F)cc1F)Nc1ccc2ncnn2c1 [Example 6, 2-[2-Fluoro-4-(trifluoromethoxy)phenyl]-N-([1,2,4]triazolo[1,5-a]pyridin-6-yl)acetamide]",19
8,"O=C(NCc1ccc(Cl)cc1Cl)c1ccc(CN2CCOCC2)cc1 [Example 7, N-(2,4-Dichlorobenzyl)-4-(4-morpholinomethyl)benzamide]",38
9,"COc1cc(OC(F)(F)F)ccc1CNC(=O)c1ccc(NS(C)(=O)=O)nc1 [Example 8-2, N-[2-methoxy-4-(trifluoromethoxy)benzyl]-6-[(methylsulfonyl)amino]nicotinamide]",48
